Experimental findings from patent US11845760B2, “PRMT5 inhibitors” (AMGEN INC., priority 2020, dated 2023) are described below.

Where only a bound is given, the exact number is not on record here.

One assay relates to HCT116 MTAP null cells. Description: HCT116 MTAP null cell line proliferation (CellTiter-Glo cell viability, 6 days). The class given is cell-based. Particulars: HCT116-MTAP null, 144 h, HCT116 MTAP null cells, 6 days of treatment, CellTiter-Glo cell viability; read-out: HCT-116 MTAP null IC50. In outline:
(§1)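 Isogenic HCT116 pair (both MTAP alleles knocked out vs parent) in RPMI 1640 + 10% FBS, seeded overnight at 37° C, 5% CO2, then exposed 6 days to 8- or 9-point 1:3 dilutions from 1 or 10 μM. CellTiter-Glo luminescence; IC50 from sigmoidal fit, Hill slope fixed −1, top 100%, or 4-parameter logistic.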
(ATP-based viability assays read luminescence as a measure of living cells.)

For the next assay, the system named is HCT116 WT cells. Description: HCT116 WT cell line proliferation (CellTiter-Glo cell viability, 6 days). The format is cell-based. The settings on record: Homo sapiens, HCT-116, 144 h, HCT116 WT (parent) cells, 6 days of treatment, CellTiter-Glo cell viability; read-out: HCT-116 WT IC50. In a few lines:
as §1

`C[C@H]1OCc2c1c(N)nc1cnc(C(=O)N3CCOC[C@H]3c3ccc(C(F)(F)F)cn3)cc21` (racemic) [Example 357, ((3R)-4-amino-3-methyl-1,3-dihydrofuro[3,4-c][1,7]naphthyridin-8-yl)((3R)-3-(5-(trifluoromethyl)-2-pyridinyl)-4-morpholinyl)methanone and ((3R)-4-amino-3-methyl-1,3-dihydrofuro[3,4-c][1,7]naphthyridin-8-yl)((3S)-3-(5-(trifluoromethyl)-2-pyridinyl)-4-morpholinyl)methanone]: the IC50 in the assay on HCT116 MTAP null cells was found to be 175 nM; in the assay on HCT116 WT cells, 9390 nM.
For `C[C@H]1OCc2c1c(N)nc1cnc(C(=O)N3CCOC[C@H]3c3ccc(F)c(OC(F)(F)F)c3)cc21` (racemic) [Example 358, ((3R)-4-amino-3-methyl-1,3-dihydrofuro[3,4-c][1,7]naphthyridin-8-yl)((3R)-3-(4-fluoro-3-(trifluoromethoxy)phenyl)-4-morpholinyl)methanone and ((3R)-4-amino-3-methyl-1,3-dihydrofuro[3,4-c][1,7]naphthyridin-8-yl)((3S)-3-(4-fluoro-3-(trifluoromethoxy)phenyl)-4-morpholinyl)methanone], the IC50 in the assay on HCT116 MTAP null cells came to 313 nM; in the assay on HCT116 WT cells, 14000 nM.
In the case of `C[C@@H]1COC[C@H](c2ccc(OC(F)(F)F)cn2)N1C(=O)c1cc2c3c(c(N)nc2cn1)COC3` (racemic) [Example 359, (4-amino-1,3-dihydrofuro[3,4-c][1,7]naphthyridin-8-yl)((3R,5S)-3-methyl-5-(5-(trifluoromethoxy)-2-pyridinyl)-4-morpholinyl)methanone and (4-amino-1,3-dihydrofuro[3,4-c][1,7]naphthyridin-8-yl)((3S,5R)-3-methyl-5-(5-(trifluoromethoxy)-2-pyridinyl)-4-morpholinyl)methanone], the IC50 in the assay on HCT116 MTAP null cells turned out to be 22 nM; in the assay with HCT116 WT cells it was 765 nM.
On the same counts, the results for `Cc1ccccc1C1COCCN1C(=O)c1ccc2nc(N)c3c(c2c1)COC3` (racemic) [Example 362, (4-amino-1,3-dihydrofuro[3,4-c]quinolin-8-yl)-[rac-(3S)-3-(o-tolyl)morpholin-4-yl]methanone] are 3410 nM and > 10000 nM.
Turning to `Nc1nc2ccc(C(=O)N3CCOCC3c3ccc(F)cc3)cc2c2c1COC2` (racemic) [Example 363, (4-amino-1,3-dihydrofuro[3,4-c]quinolin-8-yl)-[rac-(3S)-3-(4-fluorophenyl)morpholin-4-yl]methanone], the IC50 in the assay on HCT116 MTAP null cells is 1910 nM; in the assay on HCT116 WT cells, > 10000 nM.
Taken in the same sequence, the figures for `Nc1nc2ccc(C(=O)N3CCOCC3c3cccc(F)c3)cc2c2c1COC2` (racemic) [Example 364, (4-amino-1,3-dihydrofuro[3,4-c]quinolin-8-yl)-[rac-(3S)-3-(3-fluorophenyl)morpholin-4-yl]methanone] were 3480 nM and > 10000 nM.
On the same counts, the results for `COc1ccc(C2COCCN2C(=O)c2ccc3nc(N)c4c(c3c2)COC4)cc1` (racemic) [Example 365, (4-amino-1,3-dihydrofuro[3,4-c]quinolin-8-yl)-[rac-(3S)-3-(4-methoxyphenyl)morpholin-4-yl]methanone] are 1560 nM and > 10000 nM.
Taken in the same sequence, the figures for `Nc1nc2ccc(C(=O)N3CCC(F)(F)CC3c3ccc(Br)cc3)cc2c2c1COC2` (racemic) [Example 368, (4-amino-1,3-dihydrofuro[3,4-c]quinolin-8-yl)-[rac-(2R)-2-(4-bromophenyl)-4,4-difluoro-1-piperidyl]methanone] were 457 nM and 2030 nM.
In the case of `C[C@H]1OCc2c1c(N)nc1ccc(C(=O)N3[C@@H](C)COC[C@H]3c3ccc(C(F)(F)F)cn3)cc21` (racemic) [Example 372, ((3R)-4-amino-3-methyl-1,3-dihydrofuro[3,4-c]quinolin-8-yl)((3R,5S)-3-methyl-5-(5-(trifluoromethyl)-2-pyridinyl)-4-morpholinyl)methanone and ((3R)-4-amino-3-methyl-1,3-dihydrofuro[3,4-c]quinolin-8-yl)((3S,5R)-3-methyl-5-(5-(trifluoromethyl)-2-pyridinyl)-4-morpholinyl)methanone], the figures for the IC50 in the assay with HCT116 MTAP null cells and in the assay on HCT116 WT cells were 23 nM and 613 nM, respectively.
For the compound `C[C@H]1OCc2c1c(N)nc1ccc(C(=O)N3CCOC[C@H]3c3ccc(F)c(OC(F)(F)F)c3)cc21` (racemic) [Example 373, ((3R)-4-amino-3-methyl-1,3-dihydrofuro[3,4-c]quinolin-8-yl)((3R)-3-(4-fluoro-3-(trifluoromethoxy)phenyl)-4-morpholinyl)methanone and ((3R)-4-amino-3-methyl-1,3-dihydrofuro[3,4-c]quinolin-8-yl)((3S)-3-(4-fluoro-3-(trifluoromethoxy)phenyl)-4-morpholinyl)methanone], the IC50 with HCT116 MTAP null cells is 442 nM; in the assay with HCT116 WT cells, 7820 nM.
On to `C[C@H]1OCc2c1c(N)nc1ccc(C(=O)N3CCOC[C@H]3c3ccc(F)c(C(F)(F)F)c3)cc21` (racemic) [Example 374, ((3R)-4-amino-3-methyl-1,3-dihydrofuro [3,4-c]quinolin-8-yl)((3R)-3-(4-fluoro-3-(trifluoromethyl)phenyl)-4-morpholinyl)methanone and ((3R)-4-amino-3-methyl-1,3-dihydrofuro[3,4-c]quinolin-8-yl)((3S)-3-(4-fluoro-3-(trifluoromethyl)phenyl)-4-morpholinyl)methanone], for which the IC50 was 161 nM in the assay on HCT116 MTAP null cells and 9890 nM in the assay on HCT116 WT cells.
Taken in the same sequence, the figures for `C[C@H]1COC[C@@H](c2ccc(OC(F)(F)F)cn2)N1C(=O)c1cc2c3c(c(N)nc2cc1Cl)COC3` (racemic) [Example 375, (4-amino-7-chloro-1,3-dihydrofuro[3,4-c]quinolin-8-yl)((3R,5S)-3-methyl-5-(5-(trifluoromethoxy)-2-pyridinyl)-4-morpholinyl)methanone and (4-amino-7-chloro-1,3-dihydrofuro[3,4-c]quinolin-8-yl)((3S,5R)-3-methyl-5-(5-(trifluoromethoxy)-2-pyridinyl)-4-morpholinyl)methanone] were 3 nM and 58 nM.
In the case of `C[C@H]1COC[C@@H](c2ccc(OC(F)(F)F)cn2)N1C(=O)c1ccc2nc(N)c3c(c2c1)COC3` (racemic) [Example 376, (4-amino-1,3-dihydrofuro[3,4-c]quinolin-8-yl)((3R,5S)-3-methyl-5-(5-(trifluoromethoxy)-2-pyridinyl)-4-morpholinyl)methanone and (4-amino-1,3-dihydrofuro[3,4-c]quinolin-8-yl)((3S,5R)-3-methyl-5-(5-(trifluoromethoxy)-2-pyridinyl)-4-morpholinyl)methanone], the IC50 in the assay on HCT116 MTAP null cells turned out to be 29 nM; with HCT116 WT cells, 1220 nM.
Taken in the same sequence, the figures for `C[C@H]1OCc2c1c(N)nc1ccc(C(=O)N3[C@@H](C)COC[C@H]3c3ccc(OC(F)(F)F)cn3)cc21` (racemic) [Example 377, ((3R)-4-amino-3-methyl-1,3-dihydrofuro[3,4-c]quinolin-8-yl)((3R,5S)-3-methyl-5-(5-(trifluoromethoxy)-2-pyridinyl)-4-morpholinyl)methanone and ((3R)-4-amino-3-methyl-1,3-dihydrofuro[3,4-c]quinolin-8-yl)((3S,5R)-3-methyl-5-(5-(trifluoromethoxy)-2-pyridinyl)-4-morpholinyl)methanone] were 37 nM and 1110 nM.
Regarding `C[C@H]1COC[C@@H](c2ccc(OC(F)(F)F)cn2)N1C(=O)c1cc2c3c(c(N)nc2cc1F)COC3` (racemic) [Example 378, (4-amino-7-fluoro-1,3-dihydrofuro[3,4-c]quinolin-8-yl)((3R,5S)-3-methyl-5-(5-(trifluoromethoxy)-2-pyridinyl)-4-morpholinyl)methanone and (4-amino-7-fluoro-1,3-dihydrofuro[3,4-c]quinolin-8-yl)((3S,5R)-3-methyl-5-(5-(trifluoromethoxy)-2-pyridinyl)-4-morpholinyl)methanone], the IC50 was 15 nM with HCT116 MTAP null cells and 190 nM with HCT116 WT cells.
On to `C[C@@H]1OCc2c1c(N)nc1cnc(C(=O)N3[C@H](C)COC[C@@H]3c3ccc(OC(F)(F)F)cn3)cc21` (racemic) [Example 379, ((3S)-4-amino-3-methyl-1,3-dihydrofuro[3,4-c][1,7]naphthyridin-8-yl)((3R,5S)-3-methyl-5-(5-(trifluoromethoxy)-2-pyridinyl)-4-morpholinyl)methanone and ((3S)-4-amino-3-methyl-1,3-dihydrofuro[3,4-c][1,7]naphthyridin-8-yl)((3S,5R)-3-methyl-5-(5-(trifluoromethoxy)-2-pyridinyl)-4-morpholinyl)methanone], for which the IC50 in the assay on HCT116 MTAP null cells is 927 nM; in the assay on HCT116 WT cells it was > 10000 nM.
Taken in the same sequence, the figures for `C[C@@H]1COC[C@H](c2ccc(OC(F)(F)F)cn2)N1C(=O)c1cc2c3c(c(N)nc2cn1)[C@@H](C)OC3` (racemic) [Example 380, ((3R)-4-amino-3-methyl-1,3-dihydrofuro[3,4-c][1,7]naphthyridin-8-yl)((3R,5S)-3-methyl-5-(5-(trifluoromethoxy)-2-pyridinyl)-4-morpholinyl)methanone and ((3R)-4-amino-3-methyl-1,3-dihydrofuro[3,4-c][1,7]naphthyridin-8-yl)((3S,5R)-3-methyl-5-(5-(trifluoromethoxy)-2-pyridinyl)-4-morpholinyl)methanone] were 48 nM and 906 nM.

As a reminder, the IC50 is the point on the concentration scale where inhibition reaches its midpoint.
